Measured values taken from ChEMBL document CHEMBL1201862, “PubChem BioAssay data set” (2004).
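Assay format: 96-well plates, 48-hour exposure. Here, GI50 denotes the concentration required for 50% inhibition of growth.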 Activity calls are given as the source filed them. No stated cut-off is given here; in the data, active = GI50 up to about 1.1 µM and inactive = higher.

Experiments:
Assay in all cases: inhibition of tumour cell growth, NCI panel, 48 h
OVCAR-8 = tested on: OVCAR-8
KM12 = tested on: KM12
A549 = tested on: A549
OVCAR-3 = tested on: OVCAR-3
HCT-15 = tested on: HCT-15
SN12C = tested on: SN12C
786-0 = tested on: 786-0
NCI-H522 = tested on: NCI-H522
UO-31 = tested on: UO-31
K562 = tested on: K562
MDA-MB-435 = tested on: MDA-MB-435
SK-MEL-5 = tested on: SK-MEL-5
HOP-62 = tested on: HOP-62
EKVX = tested on: EKVX
NCI-H23 = tested on: NCI-H23
RXF 393 = tested on: RXF 393
NCI/ADR-RES = tested on: NCI/ADR-RES
HCC 2998 = tested on: HCC 2998
HL-60 = tested on: HL-60
COLO 205 = tested on: COLO 205

For `COc1cc2c(cc1O)C(=O)O[C@@H]1CC=C3CCN(C)[C@H]3[C@H]21`, the GI50 (OVCAR-8) was > 25 µM (inactive), the GI50 (KM12) was > 25 µM (inactive) and the GI50 (A549) was > 25 µM (inactive). The GI50 (OVCAR-3) was > 25 µM (inactive), the GI50 (HCT-15) was over 25 µM and the GI50 (SN12C) was > 25 µM (inactive). For the same compound, the GI50 (786-0) was > 25 µM (inactive), the GI50 (NCI-H522) was > 25 µM (inactive) and the GI50 (UO-31) was > 25 µM (inactive). The GI50 (K562) was > 25 µM (inactive), the GI50 (MDA-MB-435) was > 25 µM (inactive) and the GI50 (SK-MEL-5) was > 25 µM (inactive). The GI50 (HOP-62) was > 25 µM (inactive), the GI50 (EKVX) was > 25 µM (inactive) and the GI50 (NCI-H23) was > 25 µM (inactive). The GI50 (RXF 393) was > 25 µM (inactive), the GI50 (NCI/ADR-RES) was > 25 µM (inactive) and the GI50 (HCC 2998) was > 25 µM (inactive).

`c1ccc2c(Cc3c[nH]c4ccccc34)c[nH]c2c1` [ARUNDINE] was tested, and the GI50 (OVCAR-8) was 20.5 µM (inactive), the GI50 (HL-60) was 12.5 µM (inactive) and the GI50 (KM12) was 19.1 µM (inactive). The GI50 (A549) was 20.8 µM (inactive), the GI50 (OVCAR-3) was 15.7 µM (inactive) and the GI50 (HCT-15) was 23.4 µM. For the same compound, the GI50 (SN12C) was 16.6 µM (inactive), the GI50 (786-0) was 18.5 µM (inactive) and the GI50 (NCI-H522) was 30.5 µM (inactive). The GI50 (UO-31) was 14.1 µM (inactive), the GI50 (K562) was 19.6 µM (inactive) and the GI50 (MDA-MB-435) was 15.6 µM (inactive). The GI50 (SK-MEL-5) was 13.7 µM (inactive), the GI50 (HOP-62) was 17.7 µM (inactive) and the GI50 (EKVX) was 14.4 µM (inactive). The GI50 (NCI-H23) was 13.3 µM (inactive), the GI50 (RXF 393) was 15.6 µM (inactive) and the GI50 (NCI/ADR-RES) was 19.1 µM (inactive). For the same compound, the GI50 (COLO 205) was 13.6 µM (inactive).

In the case of `O=C1N/C(=N/N=C/c2ccccc2)N/C1=C\c1c[nH]c2ccccc12`, the GI50 (OVCAR-8) is reported as 38.2 µM (inactive), the GI50 (HL-60) is reported as 67.3 µM (inactive) and the GI50 (KM12) is reported as 65 µM (inactive). For the same compound, the GI50 (A549) was 28 µM (inactive), the GI50 (OVCAR-3) was 49.7 µM (inactive) and the GI50 (HCT-15) was over 100 µM. For the same compound, the GI50 (SN12C) was 29.2 µM (inactive), the GI50 (786-0) was 41.5 µM (inactive) and the GI50 (NCI-H522) was 74.3 µM (inactive). For the same compound, the GI50 (UO-31) was 71.6 µM (inactive), the GI50 (K562) was 47.1 µM (inactive) and the GI50 (MDA-MB-435) was > 100 µM (inactive). The GI50 (SK-MEL-5) was > 100 µM (inactive), the GI50 (HOP-62) was 61.4 µM (inactive) and the GI50 (EKVX) was 84.5 µM (inactive). For the same compound, the GI50 (NCI-H23) was 95.1 µM (inactive), the GI50 (RXF 393) was > 100 µM (inactive) and the GI50 (NCI/ADR-RES) was > 100 µM (inactive). For the same compound, the GI50 (COLO 205) was 60.7 µM (inactive).

With `CC12CC(=O)C3C(CCC4=CC(=O)CCC43C)C1CC=C2CC(=O)O` (configuration not stated) the GI50 (OVCAR-8) was > 100 µM (inactive), the GI50 (HL-60) was > 100 µM (inactive) and the GI50 (KM12) was > 100 µM (inactive). The GI50 (A549) was > 100 µM (inactive), the GI50 (OVCAR-3) was 98.2 µM (inactive) and the GI50 (HCT-15) was over 100 µM. For the same compound, the GI50 (SN12C) was > 100 µM (inactive), the GI50 (786-0) was > 100 µM (inactive) and the GI50 (NCI-H522) was > 100 µM (inactive). For the same compound, the GI50 (UO-31) was > 100 µM (inactive), the GI50 (K562) was > 100 µM (inactive) and the GI50 (MDA-MB-435) was > 100 µM (inactive). For the same compound, the GI50 (SK-MEL-5) was > 100 µM (inactive), the GI50 (HOP-62) was > 100 µM (inactive) and the GI50 (EKVX) was > 100 µM (inactive). The GI50 (NCI-H23) was > 100 µM (inactive), the GI50 (RXF 393) was > 100 µM (inactive) and the GI50 (NCI/ADR-RES) was > 100 µM (inactive). For the same compound, the GI50 (COLO 205) was > 100 µM (inactive).

For `COc1cc(/C=N\O)cc(/C=N/O)c1O`, the GI50 (OVCAR-8) was 37.1 µM (inactive), the GI50 (HL-60) was 27.7 µM (inactive) and the GI50 (KM12) was > 100 µM (inactive). For the same compound, the GI50 (A549) was > 100 µM (inactive), the GI50 (OVCAR-3) was 63 µM (inactive) and the GI50 (HCT-15) was over 100 µM. The GI50 (SN12C) was 31 µM (inactive), the GI50 (NCI-H522) was 75.9 µM (inactive) and the GI50 (UO-31) was 5.94 µM (inactive). The GI50 (K562) was 71.9 µM (inactive), the GI50 (MDA-MB-435) was 40 µM (inactive) and the GI50 (SK-MEL-5) was 40 µM (inactive). For the same compound, the GI50 (HOP-62) was 21.9 µM (inactive), the GI50 (EKVX) was 60.3 µM (inactive) and the GI50 (NCI-H23) was > 100 µM (inactive). For the same compound, the GI50 (RXF 393) was 23.6 µM (inactive), the GI50 (NCI/ADR-RES) was 58.1 µM (inactive) and the GI50 (COLO 205) was 22.5 µM (inactive).

`O=c1[nH]c(=O)n(COCc2ccccc2)c2ccccc12` was tested, and the GI50 (OVCAR-8) was 40.9 µM (inactive), the GI50 (HL-60) was 19.9 µM (inactive) and the GI50 (KM12) was 59.8 µM (inactive). The GI50 (A549) was 92.7 µM (inactive), the GI50 (OVCAR-3) was 87.3 µM (inactive) and the GI50 (HCT-15) was 14 µM. For the same compound, the GI50 (SN12C) was > 100 µM (inactive), the GI50 (786-0) was > 100 µM (inactive) and the GI50 (UO-31) was 29.1 µM (inactive). For the same compound, the GI50 (K562) was 45.6 µM (inactive), the GI50 (MDA-MB-435) was > 100 µM (inactive) and the GI50 (SK-MEL-5) was 27.7 µM (inactive). For the same compound, the GI50 (EKVX) was 22.5 µM (inactive), the GI50 (RXF 393) was 19.1 µM (inactive) and the GI50 (NCI/ADR-RES) was 20.5 µM (inactive). For the same compound, the GI50 (COLO 205) was 72.3 µM (inactive).

For `CCCCCCc1cc2cc(C(=O)Nc3ccc(F)cc3)c(=N)oc2cc1O`, the GI50 (OVCAR-8) was 1.58 µM (inactive), the GI50 (HL-60) was 1.96 µM (inactive) and the GI50 (KM12) was 2.92 µM (inactive). For the same compound, the GI50 (A549) was 3.21 µM (inactive), the GI50 (OVCAR-3) was 3.48 µM (inactive) and the GI50 (HCT-15) was 2.51 µM. The GI50 (786-0) was 3.63 µM (inactive), the GI50 (NCI-H522) was 0.655 µM (active) and the GI50 (UO-31) was 3.36 µM (inactive). For the same compound, the GI50 (K562) was 1.18 µM (inactive), the GI50 (MDA-MB-435) was 2.92 µM (inactive) and the GI50 (SK-MEL-5) was 1.4 µM (inactive). The GI50 (HOP-62) was 3.28 µM (inactive), the GI50 (EKVX) was 3.27 µM (inactive) and the GI50 (NCI-H23) was 1.78 µM (inactive). For the same compound, the GI50 (NCI/ADR-RES) was 2.67 µM (inactive), the GI50 (COLO 205) was 30.8 µM (inactive) and the GI50 (HCC 2998) was 5.37 µM (inactive).
